Data on 3 compounds can be found in patent US20090258836A1, “EFFECTIVE DELIVERY OF CROSS-SPECIES A3 ADENOSINE-RECEPTOR ANTAGONISTS TO REDUCE INTRAOCULAR PRESSURE” (The Trustees of The University of Pennsylvania, priority 2006, published 2009).

Data set [1] relates to mouse IOP. Nature of the data set: Mouse IOP after topical application, invasive servo-null micropipette system (SNMS). It counts as in vivo, Black Swiss mice. The method, then: (§1) The test animals were black Swiss outbred mice of mixed sex, 7-9 weeks old and 25-30 g in weight, obtained from Taconic Inc. (Germantown, N.Y.), and maintained under 12:12-h light/dark illumination cycle and allowed unrestricted access to food and water. Mice were anesthetized with intraperitoneal ketamine ([…]) supplemented by topical proparacaine HCl 0.5% (Allergan, Bausch & Lomb) for the IOP measurements. IOP was measured invasively (SNMS) and non-invasively by pneumotonometry in separate animals.
By the SNMS approach (Avila et al., supra, 2001), the exploring micropipette, of […] outer diameter, was filled with a highly conducting solution and advanced across the cornea into the anterior chamber. A refined technique by Wang et al., Invest. Opthalmol. Vis. Sci. (serial online) (Aug. 31, 2006) available at www.iovs.org/egi/letters/46/9/3274#422, enhanced stability and reduce the background noise of the records, permitting fabrication of micropipettes whose resistance is 0.1-0.3 MΩ, rather than the 0.25-0.4 MΩ used initially. The filling solution was reduced from 3M KCl to 2M NaCl, rather than 3 M KCl. The resistance of the filled micropipette was balanced in a bridge circuit, and the tip was then advanced across the cornea. Upon entering the anterior chamber of the eye, the IOP forces the much lower-conducting aqueous humor into the micropipette tip, displacing the original filling solution. The micropipette resistance was thereby increased, unbalancing the bridge circuit and triggering a bellows to provide a counter-pressure, restoring the position of the filling solution and returning the resistance to its initial value. Thus, the value of the counter-pressure equals the IOP. As in the past (Avila et al., supra, 2001), the stability of the records permitted continuous measurements for tens of minutes during the course of drug applications.
(§2) Ketamine HCl was purchased from Phoenix Pharmaceutical Inc. (St. Joseph, Mo.). Other drugs were obtained from Sigma Chemical (St. Louis, Mo.). Drugs were applied topically with an Eppendorf pipette. […] The final droplet solution contained the drugs at the stated concentrations together with <2% DMSO and 0.0005% benzalkonium chloride at an osmolality of 295-300 mOsm. DMSO was omitted, altogether, from droplets containing the hydrophilic compounds adenosine, carbachol and carboxyfluorescein.
(§3) Effects on invasively-measured IOP were measured 10 min after topical application because after this time, the continued presence of the micropipette can be associated with a downward drift of the IOP, even under control conditions. In contrast, smaller droplets ([…]) were applied to the eye more frequently (three times instead of once) with the non-invasive technique, in order to forestall drying of the eye associated with the airflow from the pneumotonometer. With the non-invasive protocol, the IOP was stable for 30 min under control conditions.
In Table 1, an endpoint of 10 minutes was used for the invasive measurements in light of the above-discussed downward drift of the IOP, even under control conditions. Also the need for smaller, more frequent droplets are discussed above with regard to the non-invasive technique using the pneumotonometer. As above, with the non-invasive protocol, the IOP was stable for 30 minutes under control conditions.

The test system of data set [2] is mouse IOP. The experiment in a line: Mouse IOP after topical application, non-invasive pneumotonometry. The class given is in vivo, Black Swiss mice. The method, then:
as §1
By comparison, IOP was measured non-invasively by pneumotonometry (OBT) (Avila et al., supra, 2005). As previously described, the commercially available tip of the ocular blood tomography (OBT) pneumotonometer (Blood Flow Analyzer [BFA] probe tip; Paradigm Medical Industries Inc.) was fit to a custom-built mount. Air flow from a constant pressure source was passed through the mount to reach a diaphragm forming the end of the BFA tip. The flow of air displaces the diaphragm outward, permitting escape of the air through holes in the wall of the probe tip into the atmosphere. Pressure was monitored with a transducer connected through a T-connection to the base of the BFA tip. The probe assembly was advanced to the cornea with a three-axis micromanipulator. The probe tip was advanced sufficiently to make contact with the tear film, as was indicated by a shift in the baseline output reading. In a refined method, the tip was withdrawn until the […] was visually displaced from the tear film. The output was then adjusted to zero before advancing the tip again. Contact with the cornea depresses the diaphragm of the BFA tip, occluding access of the air flow to the escape holes and raising the pressure at the base of the tip.
This approach was simplified to expedite identification of the endpoint, and the probe was subsequently advanced in about 10 standardized steps of approximately […] at intervals of about 10 seconds to identify the inflection region (Wang et al., supra, 2006). […] The pneumotonometric estimates of IOP were previously found to agree with manometric measurements in cannulated preparations and with estimates obtained by the servo-null technique (Avila et al., supra, 2005). Having established the baseline value of IOP, the position along the axis of advance of the micromanipulator was noted, and the probe was retracted from contact with the cornea. Subsequent measurements of IOP at later time points were obtained by advancing the probe tip to the same position, with the placement of the mouse maintained stereotactically. The measurements were conducted at 10-min intervals to avoid potential artifacts associated with prolonged pressure on the cornea.
as §2, §3
In Table 1, an endpoint of 10 minutes was used for the invasive measurements in light of the above-discussed downward drift of the IOP, even under control conditions. […]

For data set [3], the system named is HCE (human ciliary epithelial) cell line, NPE cells. The following applies: Civan et al.; read-out: EC50 of isosmotic shrinkage of cultured human NPE cells; cited from earlier work.
For a further data set, the system named is cultured human NPE cells. The following applies: cited from earlier work.
Data set [4] deals with HCE (human ciliary epithelial) cell line, NPE cells. The experiment in a line: Cell volume in isosmotic solution (isosmotic shrinkage), Coulter Counter. The following applies: 10 μM adenosine; 2 min preincubation with 300 nM MRS-1097, 100 nM MRS-1191 or 100 nM MRS-1523. It counts as cell-based. The method, then:
Cell Culture The HCE (human ciliary epithelial) cell line (Carre et al., supra, 1997) is an immortalized NPE cell line obtained from primary cultures of adult human epithelium. […] Eye Res. 57:3057-3063 (1993); Yantorno et al., Exp. Eye Res. 49:423-437 (1989)). […] Cells were passaged every 6-7 days and were studied 8-13 days after passage, after reaching confluence. An immortalized PE-cell line from a primary culture of bovine pigmented ciliary epithelium were also grown under matching conditions. Measurement of Cell Volume in Isosmotic Solution: The volume of PE and NPE cells was measured, since the movement of fluid underlies a change in PE and NPE cell volume, respectively. This is also thought to be the same as the movement of fluid which underlines the secretion of aqueous humor (FIG. 1). […] Parallel aliquots of cells were studied on the same day. One aliquot usually served as a control, and the others were exposed to different experimental conditions at the time of suspension. The same amount of solvent vehicle (dimethylformamide, DMSO or ethanol) was always added to the control and experimental aliquots. […] Cell volumes of isosmotic suspensions were measured with a Coulter Counter (model ZBI-Channelyzer II), using a 100 μm aperture (Civan et al., supra, 1994). As previously described (Wax et al., supra, 1993), the cell volume (vC) of the suspension was taken as the peak of the distribution function. Cell shrinkage was fit as a function of time (t) to a monoexpenential function: […]^0^)/τ] {1) where v∞ is the steady-state cell volume, v0 is the cell volume at the first point (t0) of the time course to be fit, and τ is the time constant of the shrinkage. For purposes of data reduction, the data were normalized to the first time point, taken to be 100% isotonic volume. Fits were obtained by nonlinear least-squares regression analysis, permitting both v∞ and τ to be variables. […] Med. Chem. 37:636-646 (1994; Jacobson et al., supra, 1995; Jacobson et al., FEBS Lett. 336:57-60 (1993)).

A further data set concerns the target T1, human A1 receptors (Homo sapiens, UniProt P30542).
T1 sequence (P30542 1-326): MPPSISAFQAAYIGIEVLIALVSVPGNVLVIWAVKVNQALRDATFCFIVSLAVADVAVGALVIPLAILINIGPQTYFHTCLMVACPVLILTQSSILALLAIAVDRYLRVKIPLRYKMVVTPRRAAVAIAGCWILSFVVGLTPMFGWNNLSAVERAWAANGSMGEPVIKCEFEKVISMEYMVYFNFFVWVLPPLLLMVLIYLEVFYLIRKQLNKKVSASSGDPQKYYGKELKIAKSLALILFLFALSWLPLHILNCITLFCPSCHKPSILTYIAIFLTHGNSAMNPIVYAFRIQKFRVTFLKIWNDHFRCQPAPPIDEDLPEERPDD
The following applies: literature; read-out: Ki for the binding to human A1 receptors; cited from earlier work.

A further data set has as its target human A2A receptors (Homo sapiens, UniProt P29274). The following applies: literature; read-out: Ki for the binding to human A2A receptors; cited from earlier work.
Another data set has as its target T2, human A3 receptors (Homo sapiens, UniProt P0DMS8).
T2 sequence (P0DMS8 1-318): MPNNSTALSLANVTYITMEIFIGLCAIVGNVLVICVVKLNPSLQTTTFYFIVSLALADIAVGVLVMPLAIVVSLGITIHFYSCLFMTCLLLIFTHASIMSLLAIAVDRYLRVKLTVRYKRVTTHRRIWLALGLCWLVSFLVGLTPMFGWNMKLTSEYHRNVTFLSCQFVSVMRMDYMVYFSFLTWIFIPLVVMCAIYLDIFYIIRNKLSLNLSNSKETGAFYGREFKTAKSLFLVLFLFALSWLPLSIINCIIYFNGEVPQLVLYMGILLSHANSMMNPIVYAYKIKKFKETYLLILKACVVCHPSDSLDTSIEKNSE
The following applies: literature; read-out: Ki for the binding to human A3 receptors; cited from earlier work.

Data set [5] can be described thus: Dye penetration into the anterior chamber with or without corneal impalement. It counts as in vivo, mouse. The following applies: 0.003% droplet, 5 min, impaled eyes. The method, then: Whether drug penetration into the eye was influenced by corneal impalement by a micropipette was further tested by topically applying a […] containing 0.003% carboxyfluorescein ([…]) to both eyes of two mice. Carboxyfluorescein is a highly polar molecule that crosses the barrier layers of the eye poorly. In each mouse, an exploring micropipette was first advanced into the aqueous humor of one eye while the companion eye was not impaled. After 5 min, the dye was washed out with isotonic saline.

“Also recorded” adds a separate entry of the source.

human A2A receptors, sequence (P29274 whole entry): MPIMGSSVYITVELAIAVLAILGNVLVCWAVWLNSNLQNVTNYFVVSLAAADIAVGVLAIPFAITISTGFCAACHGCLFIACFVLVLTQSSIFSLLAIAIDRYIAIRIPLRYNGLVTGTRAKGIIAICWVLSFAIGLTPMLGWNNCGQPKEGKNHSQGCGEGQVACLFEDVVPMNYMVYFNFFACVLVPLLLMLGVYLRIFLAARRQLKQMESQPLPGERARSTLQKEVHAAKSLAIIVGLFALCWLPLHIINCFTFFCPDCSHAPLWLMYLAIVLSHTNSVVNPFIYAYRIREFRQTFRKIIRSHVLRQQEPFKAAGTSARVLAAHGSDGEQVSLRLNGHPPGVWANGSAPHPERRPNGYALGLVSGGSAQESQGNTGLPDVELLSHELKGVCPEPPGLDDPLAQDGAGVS

For orientation: EC50 means the concentration needed to bring the measured effect to its halfway point. Consider `Nc1ncnc2c1ncn2[C@@H]1O[C@H](CO)[C@@H](O)[C@H]1O` [Adenosine, adenosine], for which, in the data set on mouse IOP [1] (SNMS, after 10 min, adenosine 10 mM, Cl-IB-MECA 200 nM droplet), the “increase in IOP over baseline” value is given as 24.0±4.7 mmHg. Besides, the “Δ(IOP) Servo-Null” value in the data set on mouse IOP [1] (topical droplet 10 mM, endpoint 10 min) was “+22.4 ± 6.5 mm Hg”. Further, the “delay of the increase in IOP when measured non-invasively” value in the data set on mouse IOP [2] (topical) is listed as “about 10 minutes”. Besides, in the data set on mouse IOP [2] (topical droplets 10 mM, 30 min), the “Δ(IOP) Pneumotonometer” value is reported as “+4.8 ± 1.7 mm Hg”. The EC50 in data set [3] was 3 to 10 µM. Further, the “time constant (τ) of the adenosine-triggered shrinkage” value with cultured human NPE cells (10 μM adenosine without antagonist) is 3.8 ± 0.6 min. The “degree of shrinkage relative to control” value with cultured human NPE cells (10 μM) is reported as “increased the degree of shrinkage several-fold”.
Broadly, the Ki is the dissociation constant of the complex between target and ligand, obtained from inhibition or displacement. On to `CCCOC(=O)c1c(-c2ccccc2)nc(CC)c(C(=O)SCC)c1CCC` [MRS-1523], for which the “effect of A3 antagonist on adenosine-stimulated isotonic shrinkage of NPE cells” value in data set [4] was “prevented the characteristic shrinkage; also recorded: blocked the shrinkage; also recorded: eliminated the actions of adenosine”. Moreover, the “effect on IOP in the mouse (in words)” value in the data set with mouse IOP [1] (tested by the inventors, technique not given) is “found to lower IOP in the mouse”. Besides, the results for the Ki on human A1 receptors, at human A2A receptors and on human A3 receptors were 15.6 µM, 2050 nM and 19 nM, respectively.
For carboxyfluorescein, the “fluorescence in the anterior chamber” value in data set [5] is on record as “Green fluorescence was observed in the anterior chamber of the impaled mouse eyes”.
